{
  "source": "patent US20130149415A1",
  "about": "“Use of manganese for enhancing the growth of L.casei in mixed cultures” (priority 2010, published 2013)",
  "key": {"[1]": {"tested_on": "Lactobacillus casei subsp. rhamnosus DN-116 010", "settings": "for paracasei ou rhamnosus count. num. Mn/count. J + 1 / Count ufc/ml at +10° C. Count. J + 1 paracasei ou rhamnosus: 543 043 + 116 010", "method": "(§1) The population of Lactobacillus casei subsp. paracasei, was evaluated at J+3 by cell count analysis. Cell count analysis was performed by serial dilutions of the fermented medium with tryptone salt solution, and plating on Petri dishes with appropriate agar medium: MRS Agar containing 1.5 g/l of BactoOXGALL (DIFCO) for Lactobacillus casei.\n(§2) Petri dishes were incubated at 37° C. during 96 H in anaerobic conditions (5% CO2).\n(§3) The same experimentations as in Example 1 were performed with co-cultures of Lactobacillus casei subsp. paracasei DN-114 121 or Lactobacillus casei subsp. rhamnosus DN-116 010 with the yogurt ferment DN 543 043 described above, or the yogurt ferment DN 522 044, consisting of a strain of Streptococcus thermophilus (DN-001 143), Streptococcus thermophilus (DN-001 257) and a strain of Lactobacillus lactis (DN-111 224).\nLactobacillus casei subsp. rhamnosus DN-116 010 was inoculated at 5.8 10^7. CFU/ml.\nDN 543 043 was inoculated at 2 10^6 CFU/ml for Streptococcus thermophilus DN-001 171; and 7 10^4 CFU/ml for Lactobacillus bulgaricus DN-100 182.\n(§4) Fermentation was conducted at 36° C., and monitored by measuring the decrease of pH in the culture medium. Fermentation was stopped by transfering the preparation at 4° C. when a target pH of about 4.6 was reached.\n(§5) The population of Lactobacillus casei subsp. paracasei was evaluated after 1 day (J+1) incubation at 10° C."}, "[2]": {"tested_on": "Streptococcus thermophilus and Lactobacillus bulgaricus", "test": "Acidification kinetics of the co-cultures (monitoring of yogurt bacteria growth by pH decrease)", "type": "cell-based", "text": "The populations of Streptococcus thermophilus and Lactobacillus bulgaricus were not evaluated by cell counts, but by the evaluation of the acidification kinetics. It is well known that Streptococcus thermophilus and Lactobacillus bulgaricus grow faster in milk than L. casei and their lactic acid productions are directly correlated to their growth. Also, in the present invention, the monitoring of acidification corresponds to the monitoring of Streptococcus thermophilus and Lactobacillus bulgaricus growth."}, "[3]": {"tested_on": "Lactobacillus casei subsp. paracasei DN-114 121", "test": "Cell count of Lactobacillus casei subsp. paracasei co-cultured with yogurt ferments in dairy medium", "type": "cell-based", "settings": "for ratio count.Mn/count. J + 1 / ratio count.Mn/count. J + 3: Mn 20 mg/L vs without Mn; for Count ufc/ml at +10° C. J + 1 / Count ufc/ml at +10° C. J + 3: Mn 20 mg/L", "method": "Medium A and medium B are inoculated with Lactobacillus casei subsp. paracasei DN-114 121 (3.80×10^7 CFU/ml), and a yogurt ferment (DN 542 142) consisting of: Streptococcus thermophilus DN-001 640 (10^6 CFU/ml), Streptococcus thermophilus DN-001 336 (2. 10^6 CFU/ml), Streptococcus thermophilus DN-001 236 (7. 10^5 CFU/ml) and Lactobacillus bulgaricus DN-100 290 (10^5 CFU/ml).\nFermentation was conducted at 36° C., and monitored by measuring the decrease of pH in the culture medium. Fermentation was stopped by transferring the preparation at 4° C. when a target pH of 4.6 was reached.\nas §1, §2\nTwo yogurt ferments were tested in combination with Lactobacillus casei: DN 542 142 described above, and DN 543 043, consisting of a strain of Streptococcus thermophilus (DN-.001 171) and a strain of Lactobacillus bulgaricus (DN-100 182).\nLactobacillus casei subsp. paracasei DN-114 121 was inoculated at 3.8 10^7 CFU/ml.\nDN 542 142 was inoculated at 10^6 CFU/ml for Streptococcus thermophilus DN-001 640; 2.10^6 CFU/ml for Streptococcus thermophilus DN-001 336; 7.10^5 CFU/ml for Streptococcus thermophilus DN-001 236, and 10^5 CFU/ml for Lactobacillus bulgaricus DN-100 290.\nDN 543 043 was inoculated at 2.10^6 CFU/ml for Streptococcus thermophilus DN-001 171; and 7.10^4 CFU/ml for Lactobacillus bulgaricus DN-100 182.\nFermentation was conducted at 36° C., and monitored by measuring the decrease of pH in the culture medium. Fermentation was stopped by transferring the preparation at 4° C. when a target pH of about 4.6 (in the case of the co-culture with the yogurt ferment DN 542 142), or of about 4.45 (in the case of the co-culture with the yogurt ferment DN 543 043) was reached.\nThe population of Lactobacillus casei subsp. paracasei was evaluated after 1 day (J+1) and 3 days (J+3) incubation at 10° C.\nas §3, §4, §5"}, "[4]": {"settings": "addition of 20 mg/l of manganese, Example 1 co-cultures (DN 542 142 or DN 543 043 + DN-114 121)"}},
  "note": "Where two headings read alike, the source gives them in different places.",
  "data": [
    {"substance": "monohydrate manganese sulfate [Mn]", "values": [
      {"measurement": "paracasei ou rhamnosus count. num. Mn/count. J + 1", "setting": "[1]; 20 mg/L Mn vs 0 mg/L Mn", "result": 1.3},
      {"measurement": "Count ufc/ml at +10° C. Count. J + 1 paracasei ou rhamnosus", "setting": "[1]; 20 mg/L Mn", "result": "3.20E+08", "unit": "ufc/ml"},
      {"measurement": "paracasei ou rhamnosus count. num. Mn/count. J + 1", "setting": "[1]; 60 mg/L Mn vs 0 mg/L Mn", "result": 1.3},
      {"measurement": "Count ufc/ml at +10° C. Count. J + 1 paracasei ou rhamnosus", "setting": "[1]; 60 mg/L Mn", "result": "3.30E+08", "unit": "ufc/ml"},
      {"measurement": "effect on the population of the bacteria of the L. casei group", "setting": "[1]; Example 2, Lactobacillus casei ssp rhamnosus, 20, 60 mg/l manganese", "result": "selectively increases the population"},
      {"measurement": "effect on the acidification kinetics of the co-cultures", "setting": "[2]; Example 2 co-cultures, 0.5, 20, 60 mg/l manganese", "result": "no effect"},
      {"measurement": "effect on the acidification kinetics of the co-cultures", "setting": "[2]; [4]", "result": "no effect"},
      {"measurement": "paracasei ou rhamnosus count. num. Mn/count. J + 1", "setting": "[3]; 522 044 + 114 121, 20 mg/L Mn vs 0 mg/L Mn", "result": 2.3},
      {"measurement": "Count ufc/ml at +10° C. Count. J + 1 paracasei ou rhamnosus", "setting": "[3]; 522 044 + 114 121, 20 mg/L Mn", "result": "3.25E+08", "unit": "ufc/ml"},
      {"measurement": "ratio count.Mn/count. J + 1", "setting": "[3]; 542 142 + 114 121", "result": 1.9},
      {"measurement": "ratio count.Mn/count. J + 3", "setting": "[3]; 542 142 + 114 121", "result": 1.7},
      {"measurement": "Count ufc/ml at +10° C. J + 1", "setting": "[3]; 542 142 + 114 121", "result": "1.15E+08", "unit": "ufc/ml"},
      {"measurement": "Count ufc/ml at +10° C. J + 3", "setting": "[3]; 542 142 + 114 121", "result": "1.61E+08", "unit": "ufc/ml"},
      {"measurement": "paracasei ou rhamnosus count. num. Mn/count. J + 1", "setting": "[3]; 543 043 + 114 121, 0.5 mg/L Mn vs 0 mg/L Mn", "result": 2.2},
      {"measurement": "Count ufc/ml at +10° C. Count. J + 1 paracasei ou rhamnosus", "setting": "[3]; 543 043 + 114 121, 0.5 mg/L Mn", "result": "2.99E+08", "unit": "ufc/ml"},
      {"measurement": "paracasei ou rhamnosus count. num. Mn/count. J + 1", "setting": "[3]; 543 043 + 114 121, 20 mg/L Mn vs 0 mg/L Mn", "result": 2.3},
      {"measurement": "Count ufc/ml at +10° C. Count. J + 1 paracasei ou rhamnosus", "setting": "[3]; 543 043 + 114 121, 20 mg/L Mn", "result": "3.13E+08", "unit": "ufc/ml"},
      {"measurement": "paracasei ou rhamnosus count. num. Mn/count. J + 1", "setting": "[3]; 543 043 + 114 121, 60 mg/L Mn vs 0 mg/L Mn", "result": 2.4},
      {"measurement": "Count ufc/ml at +10° C. Count. J + 1 paracasei ou rhamnosus", "setting": "[3]; 543 043 + 114 121, 60 mg/L Mn", "result": "3.25E+08", "unit": "ufc/ml"},
      {"measurement": "ratio count.Mn/count. J + 1", "setting": "[3]; 543 043 + 114 121", "result": 1.9},
      {"measurement": "ratio count.Mn/count. J + 3", "setting": "[3]; 543 043 + 114 121", "result": 2.1},
      {"measurement": "Count ufc/ml at +10° C. J + 1", "setting": "[3]; 543 043 + 114 121", "result": "2.70E+08", "unit": "ufc/ml"},
      {"measurement": "Count ufc/ml at +10° C. J + 3", "setting": "[3]; 543 043 + 114 121", "result": "3.00E+08", "unit": "ufc/ml"},
      {"measurement": "effect on the population of the bacteria of the L. casei group", "setting": "[3]; Example 2, Lactobacillus casei ssp paracasei, 0.5, 20, 60 mg/l manganese", "result": "selectively increases the population"},
      {"measurement": "effect on the population of Lactobacillus casei", "setting": "[3]; [4]", "result": "selectively increases the population of Lactobacillus casei"}
    ]}
  ]
}
